Where “and” joins values, the source holds several entries; their conditions need not be identical. Equal values may be shown once. [PEt] = P-ethoxy (ethyl phosphotriester) internucleoside linkage
Assays:
Grb2 = experiment: Selective inhibition of Grb2 protein production (SDS-PAGE, blot) in BV173 and ALL-1 cells; type: cell-based, human; settings: 4 to 8 μM, three days, Crk1 as control protein
Procedure: FIGS. 5A-B. Selective inhibition of the production of Grb2 proteins. […] After three days of culture, protein-containing layers were prepared and subjected to SDS-PAGE and transferred to nitrocellulose membranes. Blots were cut into sections and incubated with antibodies specific for Grb2 (target) or Crk1 (control) protein. BP1001 is a neutral liposome incorporated with the nuclease-resistant, hydrophobic P-ethoxy antisense oligos targeted to Grb2 mRNA.

[1] = tested on: imatinib-sensitive and imatinib-resistant CML cell lines; experiment: Growth inhibition and ERK1,2/Akt phosphorylation in CML cell lines; type: cell-based; settings: preclinical studies
Text: BP1001 is a neutral liposome incorporated with the nuclease-resistant, hydrophobic P-ethoxy antisense oligos targeted to Grb2 mRNA. In preclinical studies, BP1001 was effective in inducing growth inhibition and decreasing ERK1,2 and Akt phosphorylation in imatinib-sensitive and imatinib-resistant CML cell lines.

[2] = Procedure: The potential toxicity of a twice weekly intravenously (slow bolus) administered BP1001 in Dutch Belted rabbits was conducted. BP1001 was administered over a 28-day period followed by a 2-week recovery phase.
Doses were administered on Study Days 1, 3, 8, 10, 15, 17, 22, and 24. The first day of dosing on the study was designated as Study Day 1. The doses were given at approximately the same time each day. Individual dose volumes were calculated based on the most recently recorded body weight for each animal. Study Day 1 dose levels were calculated on a pretest body weight.

[3] = tested on: five strains of Salmonella; experiment: Ames mutagenicity study; type: cell-based; settings: presence and absence of S-9
Procedure: BP1001 was tested in an Ames mutagenicity study. Sodium chloride (0.9%) was added to vials of BP1001 containing 5 mg of Grb2 oligonucleotide. The sample was tested against five strains of Salmonella in various concentrations in the presence and absence of the S-9 enzyme activation system. The sample was not mutagenic to the strains tested.

[4] = tested on: phosphorylated Erk1,2 (pErk); experiment: Flow cytometry of pErk levels in circulating leukemia cells of patients; type: in vivo, human; settings: for pErk decrease (%) (Day 15) / pErk decrease (%) (Day 22 or end-of-treatment): individual subjects
Text: Flow cytometry was used to determine the levels of Grb2 and pErk proteins in the circulating leukemia cells of patients who were on BP1001 single agent therapy, and were reported as median fluorescent intensity (MFI). MFI of Grb2 and pErk during treatment were compared to those at baseline.
Peripheral blood was collected from patients in cohorts 3, 4, 5, and 6, before being dosed on Cycle 1 days 1, 8, 15 and 22, and Cycle 2 day 1. White blood cells were isolated from peripheral blood using BD Vacutainer CPT cell preparation tubes with sodium heparin (BD Dickinson), fixed and stored in −80° C. freezer. Flow cytometry was utilized to determine Grb2 and phosphorylated Erk1,2 (pErk) levels in CD33-expressing cells using a validated method (Flow Contract Site Laboratory, Bothell, Wash., USA).
Flow cytometry was utilized to determine the levels of Grb2 and pErk proteins in the circulating leukemia cells of patients who were on BP1001 single agent therapy, and were reported as median fluorescent intensity (MFI). MFI of Grb2 and pErk during treatment were compared to those at baseline (Table 7).

[5] = Plasma pharmacokinetics of Grb2 antisense oligo in patients; settings: human, in vivo
Procedure: Pharmacokinetic (PK) analysis was performed on plasma samples collected from refractory/relapsed patients diagnosed with AML receiving BP1001 (60 mg/m^2)+LDAC or receiving BP1001 (90 mg/m^2)+LDAC.
Blood samples for measurement of Grb2 antisense oligo concentrations were collected from patients in cohorts 7 and 8, at predose, 1, 2, 4, 6, 8, 24, 72 h post start-of-infusion (SOI). Urine samples for measurement of BP1001 concentrations were also collected from patients in cohorts 7 and 8, at start of dose-4 h, 4-8 h postdose, and 8-24 h postdose. PK blood samples were processed to plasma and analyzed using a validated method (Charles River Laboratories, Montreal, Canada) with a lower limit of quantitation (LLOQ; 0.5 ng/mL). Urine samples were analyzed using a validated method (Charles River Laboratories, Montreal, Canada) with a LLOQ of 1.00 ng/mL.
PK parameters were estimated using Phoenix pharmacokinetic software (Certara). A non-compartmental approach consistent with the IV infusion route of administration was used for parameter estimation, using an estimated infusion time of 2.5 h. All parameters were generated from Grb2 antisense oligo individual concentrations in plasma from Day 1 of Cycle 1, whenever practical. […] Parameters were estimated using nominal sampling times relative to the start of infusion. The area under the concentration vs. time curve (AUC) was calculated using the linear trapezoidal method with linear interpolation. The slope of the terminal elimination phase was determined using log linear regression on the unweighted concentration data.

BV173 cells = experiment: Cell cycle analysis (7-AAD flow cytometry); type: cell-based, human; settings: BP1001 1 day before dasatinib, harvested three days later (FIGS. 8A-D)
Procedure: Cells were then fixed and permeabilized for 1 h at 4° C. with 1×Fixation/Permeabilization buffer (Ebioscience, San Diego, Calif., USA). After permeabilization, cells were washed and incubated with 7-aminoactinomycin D (7-AAD, Biolegend, San Diego, Calif., USA) in the dark at 4° C. for about 30 min. Flow cytometric data acquisition was acquired using BD FACSDiva™ software (BD Biosciences, San Jose, Calif., USA). The flow cytometer was set to collect 20,000 events. Relative percentages in the different cell cycle phases (sub-G1, G1, S, G2/M) were reported.
[…] Three days later, cells were harvested and processed for flow cytometry.

[6] = rat, in vivo, iv
Procedure: Blood (0.3 mL) was collected through the right femoral artery at 5, 10, 20, 30, 60, 90, 120, 180, and 240 minutes following injection. After each withdrawal, the catheter was flushed with sodium heparin 1:1000 (Units/mL). Whole blood samples were extracted and assayed for ^32P radioactivity by liquid scintillation as previously described (Tani, 1998; Gutierrez-Puente, 1999). Pharmacokinetic parameters were determined by nonlinear regression analysis (Rstrip; Micro Math, Inc., Salt Lake City, Utah).

## BP1001: liposome-incorporated P-ethoxy antisense oligodeoxynucleotide (5′-ATATTTGGCGATGGCTTC-3′, SEQ ID NO: 1) specific to grb2 mRNA, in neutral DOPC liposomes (DNA, all [PEt], methylation of C not given here; incorporated in neutral DOPC liposomes)
Grb2
  Grb2 protein production: selectively inhibit Grb2 protein production
[1]
  growth inhibition and decrease of ERK1,2 and Akt phosphorylation: effective
[2]; rabbit
  effects on coagulation parameters: no observed effects
[2]; rabbit, 3.75, 5.00 or 7.50 mg/kg i.v. slow bolus twice weekly, 28 days
  toxicity (clinical observations, body weights, bone marrow cytology, clinical pathology, organ weights, microscopic findings): no apparent toxicity
[3]
  mutagenicity: not mutagenic
[4]; cohort 3, 20 mg/m^2
  pErk decrease (%) (Day 15): 3% and 28% and 0%
  pErk decrease (%) (Day 22 or end-of-treatment): 45% and 35% and 0%
[4]; cohort 4, 40 mg/m^2
  pErk decrease (%) (Day 15): 82% and 0%
  pErk decrease (%) (Day 22 or end-of-treatment): 91% and 0% and 27%
[4]; cohort 5, 60 mg/m^2
  pErk decrease (%) (Day 15): 0% and 51% and 55%
  pErk decrease (%) (Day 22 or end-of-treatment): 54% and 0% and 47%
[4]; cohort 6, 90 mg/m^2
  pErk decrease (%) (Day 15): 0% and 54% and 42%
  pErk decrease (%) (Day 22 or end-of-treatment): 0% (2×) and 63%
[4]; last measured sample
  average decrease in pErk levels: 52%
[4]; last measured sample (end of treatment or cycle 1 day 22), MFI vs baseline
  samples with ≥25% decrease of pErk levels: 7 out of 12
[5]; 60 mg/m2
  Tmax: 1 h
  t1/2: 29.6 ± 8.1 h
[5]; 90 mg/m2
  Tmax: 1 h
  t1/2: 11.8 ± 5.4 h
BV173 cells
  percentage of cells in sub-G1 phase: 3.1%
[6]
  t1/2α (initial distribution phase): 5.16 ± 0.3 min
[6]; 10 mg/kg
  Area under the concentration curve (AUC): 5.4 ± 0.9 mg·min/mL
  immediate apparent volume of distribution: 36.42 ± 1.88 mL
  residence time: 309.6 ± 21.5 min
  terminal phase half-life (t1/2β): 3.76 ± 0.22 h
